Melting point data for 15 compounds are collected here from US6979690B2, “Oxo or oxy-pyridine compounds as 5-HT4 receptor modulators” (Pfizer Inc., priority 2002, dated 2005).

For `COc1nc(N)c(Cl)cc1C(=O)CCC1CCNCC1.Cl`, the melting point was found to be 230.6 °C. In the case of `CCN1CCC(CNC(=O)c2cc(Cl)c(N)[nH]c2=O)CC1` [Example 1, 6-Amino-5-chloro-N-[(1-ethyl-4-piperidinyl)methyl]-2-oxo-1,2-dihydro-3-pyridinecarboxamide] it was 136 to 140 °C; in that of `CC(C)CCN1CCC(CNC(=O)c2cc(Cl)c(N)[nH]c2=O)CC1` [Example 5, 6-Amino-5-chloro-N-{[1-(3-methylbutyl)-4-piperidinyl]methyl}-2-oxo-1,2-dihydro-3-pyridinecarboxamide], 131 to 135 °C; in that of `CC(C)CN1CCC(CNC(=O)c2cc(Cl)c(N)[nH]c2=O)CC1` [Example 6, 6-Amino-5-chloro-N-{[1-(2-methylpropyl)-4-piperidinyl]methyl}-2-oxo-1,2-dihydro-3-pyridinecarboxamide], 128 to 133 °C.

`CCOC(=O)CN1CCC(CNC(=O)c2cc(Cl)c(N)[nH]c2=O)CC1` [Example 7, Ethyl [4-({[(6-amino-5-chloro-2-oxo-1,2-dihydro-3-pyridinyl)carbonyl]amino}methyl)-1-piperidinyl]acetate] showed a melting point of 162 to 164 °C. Under `CC(C)(C)OC(=O)CN1CCC(CNC(=O)c2cc(Cl)c(N)[nH]c2=O)CC1` [Example 8, 1,1-Dimethylethyl [4-({[(6-amino-5-chloro-2-oxo-1,2-dihydro-3-pyridinyl)carbonyl]amino}methyl)-1-piperidinyl]acetate] stands 200 to 203 °C; under `CCCCN1CCC(CCC(=O)c2cc(Cl)c(N)nc2OC)CC1` [Example 10, 1-[6-Amino-5-chloro-2-(methoxy)-3-pyridinyl]-3-(1-butyl-4-piperidinyl)-1-propanone], 86 to 87 °C; under `CCCCN1CCC(CCC(=O)c2ccc(N)nc2OC)CC1` [Example 12, 1-(6-Amino-2-methoxy-3-pyridinyl)-3-(1-butyl-4-piperidinyl)-1-propanone], 85 to 89 °C. In the case of `COc1nc(N)c(Cl)cc1C(=O)CCC1CCN(CC(C)C)CC1` [Example 14, 1-(6-Amino-5-chloro-2-methoxy-3-pyridinyl)-3-(1-isobutyl-4-piperidinyl)-1-propanone] it was 128 °C. Consider `CC(C)CN1CCC(CCC(=O)c2cc(Cl)c(N)[nH]c2=O)CC1` [Example 15, 6-Amino-5-chloro-3-[3-(1-isobutyl-4-piperidinyl)propanoyl]-2(1H)-pyridinone], for which the melting point worked out at 175 °C. In the case of `COc1nc(N)ccc1C(=O)CCC1CCN(CC2CCCCC2)CC1` [Example 16, 1-(6-Amino-2-methoxy-3-pyridinyl)-3-[1-(cyclohexylmethyl)-4-piperidinyl]-1-propanone] it was 73.2 °C; in that of `Nc1[nH]c(=O)c(C(=O)CCC2CCN(CC3CCCCC3)CC2)cc1Cl` [Example 106, 6-Amino-5-chloro-3-{3-[1-(cyclohexylmethyl)piperidine-4-yl]propanoyl}pyridin-2(1H)-one], 164.3 °C; in that of `COc1nc(N)c(Cl)cc1C(=O)CCC1CCN(CC(O)C(C)(C)C)CC1` (stereo not drawn) [Example 107, 1-(6-Amino-5-chloro-2-methoxypyridin-3-yl)-3-[1-(2-hydroxy-3,3-dimethylbutyl)piperidine-4-yl]propan-1-one], 134 °C. In the case of `CC(C)(C)C(O)CN1CCC(CCC(=O)c2cc(Cl)c(N)[nH]c2=O)CC1` (stereo not drawn) [Example 108, 6-Amino-5-chloro-3-{3-[1-(2-hydroxy-3,3-dimethylbutyl)-piperidine-4-yl]propanoyl}pyridin-2(1H)-one] it was 211.3 °C. The compound `COc1nc(N)c(Cl)cc1C(=O)CCC1CCN(CC(C)(C)O)CC1` [Example 109, 1-(6-Amino-5-chloro-2-methoxypyridin-3-yl)-3-[1-(2-hydroxy-2-methylpropyl)piperidine-4-yl]propan-1-one] had a melting point of 108.1 °C.

Broadly, the melting point is the temperature of the solid-liquid transition.
